Assay results as given in US7312188B2, “Peptide derivatives having β-secretase inhibitory activity” (priority 2003, dated 2007).
Numbered stars: 1 amine (or outer) side, 2 acyl side, 3 side chain; on linkers, the order of the positions; unused ones are H or OH. Square brackets hold non-standard residues; d marks the D form. Peptide text beside a SMILES is read from it. * marks the point of attachment. ξ: configuration not given here. β3hPhe(2R-OH) = O=C([C@H](O)[C@H](Cc1ccccc1)N[*:1])[*:2]; X2 = O=C([C@H](O)[C@H](CSc1ccccc1)N[*:1])[*:2]; Benzoyl(3-COOH) = O=C(O)c1cccc(C(=O)*)c1; Benzoyl(4-COOH) = O=C(O)c1ccc(C(=O)*)cc1; Tetrazole5carbonyl = O=C(c1nn[nH]n1)*; Oxalyl = O=C(C(=O)[*:2])[*:1]; Tle = CC(C)(C)[C@H](N)C(=O)O; 3Abz = Nc1cccc(C(=O)O)c1; 4Abz = Nc1ccc(C(=O)O)cc1; 2Abz = Nc1ccccc1C(=O)O; Dap = NC[C@H](N)C(=O)O; ξPip = O=C(O)C1CCCCN1; Aib = CC(C)(N)C(=O)O

Molecular target: T1, recombinant human BACE-1 (rhBACE-1) (Homo sapiens, UniProt P56817)
T1 construct: expressed as only an extracellular region (amino acid 1-460 residues) of recombinant human β-secretase; His tag (C); purchased R&D systems (Minneapolis, Minn.); host or cells: murine myeloma cell line NS0
T1 sequence (P56817 22-460 limits assumed): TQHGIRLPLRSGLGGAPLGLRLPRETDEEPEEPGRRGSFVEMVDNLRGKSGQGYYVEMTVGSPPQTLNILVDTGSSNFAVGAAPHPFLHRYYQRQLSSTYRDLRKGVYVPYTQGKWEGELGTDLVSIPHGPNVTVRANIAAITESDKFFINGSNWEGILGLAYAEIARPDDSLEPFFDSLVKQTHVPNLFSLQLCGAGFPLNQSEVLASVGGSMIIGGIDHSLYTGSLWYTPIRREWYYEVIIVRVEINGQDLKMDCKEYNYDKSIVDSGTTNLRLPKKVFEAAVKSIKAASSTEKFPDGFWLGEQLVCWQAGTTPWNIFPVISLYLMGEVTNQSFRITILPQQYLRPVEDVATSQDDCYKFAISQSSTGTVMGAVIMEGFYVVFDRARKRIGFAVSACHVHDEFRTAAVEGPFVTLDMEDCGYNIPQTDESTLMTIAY
Experiment: BACE1 inhibitory activity, reverse phase HPLC quantitation of N-terminal fragment of fluorogenic substrate
Assay type: biochemical
Details: 1 μL of inhibitor solution in DMSO (100 μM) in 50 μL reaction; MES buffer pH 5.0; 37° C., 60 minutes
Description: Experiment Regarding Measurement of BACE1 Inhibitory Activity
Enzyme Used in Measurement
As an enzyme having β-secretase activity, recombinant human BACE-1 (rhBACE-1) purchased from R&D systems (Minneapolis, Minn.) was used. rhBACE-1 is expressed as only an extracellular region (amino acid 1-460 residues) of recombinant human β-secretase, with a His tag at its carboxyl terminal in murine myeloma cell line, NS0. Purified secreted rhBACE1 is a mixture of a pro entity (about 75 kDa) and a mature entity (about 72 kDa).
Assessment of Enzyme Inhibitory Activity
Enzyme inhibitory activity of an inhibitor was assessed by quantitating an N-terminal fragment produced aftercleaving the substrate with BACE1 by reverse HPLC using (7-methoxycoumarin-4-yl)acetyl-[…]2,4-dinitrophenyl)-Arg-Arg-NH2 purchased from Peptide Institute (Osaka, Japan) as a substrate for BACE1. To 40 μL of 62.5 mM 2-(N-morpholino)ethansulfonic acid (MES)-CH3COOH—NaOH buffer (pH 5.0), were added 1 μL of a solution of an inhibitor diluted with DMSO (100 μM), 4 μL of rhBACE-1 (6.25 ng/μL), and 5 μL of an aqueous solution (50% DMSO) of 250 μM substrate (7-methoxycoumarin-4-yl)acetyl-[…]2,4-dinitrophenyl)-Arg-Arg-NH2 to initiate an enzyme reaction. After incubation at 37° C. for 60 minutes, 20 μL of 20% trichloroacetic acid was added to stop the reaction. And, inhibition % was calculated by measuring a fluorescent intensity of the N-terminal fragment (Ex, 328 nm; Em, 393 nm) using reverse phase HPLC (linear gradient of MeCN in aqueous TFA; flow rate, 1.0 mL/min).
BACE1 Inhibitory Activity
Enzyme inhibitory activity of an inhibitor was assessed by quantitating a N-terminal fragment produced after cleavage of a substrate with BACE1 by reverse phase HPLC using (7-methoxycoumarin-4-yl)acetyl-[…]2,4-dinitrophenyl)-Arg-Arg-NH2 purchased from Peptide Institute (Osaka, Japan) as a substrate for BACE1. Recombinant human BACE-1 purchased from R&D systems (Minneapolis, Minn.) was used. To 40 μL of 62.5 mM 2-(N-morpholino)ethansulfonic acid (MES)-CH3COOH—NaOH buffer (pH 5.0), were added 1 μL of a solution of an inhibitor diluted with DMSO (100 μM), 4 μL of BACE1 (6.25 ng/μL), and 5 μL of an aqueous solution (50% DMSO) of 250 μM substrate (7-methoxycoumarin-4-yl)acetyl-[…]2,4-dinitrophenyl)-Arg-Arg-NH2 to initiate an enzyme reaction. After incubation at 37° C. for 60 minutes, 20 μL of 20% trichloroacetic acid was added to stop a reaction. Inhibition % was calculated by measuring a fluorescent intensity of the N-terminal fragment (Ex, 328 nm; Em, 393 nm) using reverse phase HPLC (linear gradient of MeCN in aqueous TFA; flow rate, 1.0 mL/min).

SMILES	inhibition at 2 µM [%]	inhibition at 100 µM (stock) [%]
CC(C)C[C@H](NC(=O)[C@@H](NC(=O)[C@@H](N)CNC(=O)C(=O)O)C(C)C)C(=O)N[C@@H](Cc1ccccc1)[C@@H](O)C(=O)Nc1ccc(C(=O)O)cc1 [Example 68]		98.8
CC(C)C[C@H](NC(=O)[C@@H](NC(=O)[C@@H](N)CNC(=O)C(=O)O)C(C)C)C(=O)N[C@@H](Cc1ccccc1)[C@@H](O)C(=O)Nc1cccc(C(=O)O)c1 [Example 69]	98.4	
CC(C)C[C@H](NC(=O)[C@@H](NC(=O)[C@@H](N)CNC(=O)C(=O)O)C(C)C)C(=O)N[C@@H](Cc1ccccc1)[C@@H](O)C(=O)N[C@@H](CC(=O)O)C(=O)Nc1cccc(C(=O)O)c1 [Example 70] (H-[Dap](Oxalyl)VL[β3hPhe(2R-OH)]D[3Abz]-OH)	98.3	
CC(C)C[C@H](NC(=O)[C@@H](NC(=O)[C@@H](N)CNC(=O)C(=O)O)C(C)C)C(=O)N[C@@H](Cc1ccccc1)[C@@H](O)C(=O)N[C@@H](CC(=O)O)C(=O)Nc1ccc(C(=O)O)cc1 [Example 71] (H-[Dap](Oxalyl)VL[β3hPhe(2R-OH)]D[4Abz]-OH)	97.9	
CCOC(=O)c1cccc(NC(=O)c2cccc(NC(=O)[C@H](O)[C@H](Cc3ccccc3)NC(=O)[C@H](CC(C)C)NC(=O)[C@@H](NC(=O)[C@@H](N)CCC(=O)O)C(C)C)c2)c1 [Example 72]	95	
CC(C)C[C@H](NC(=O)[C@@H](NC(=O)[C@@H](N)CNC(=O)c1nnn[nH]1)C(C)C)C(=O)N[C@@H](Cc1ccccc1)[C@@H](O)C(=O)N[C@@H](CC(=O)O)C(=O)N[C@@H](C)C(=O)N[C@@H](CCC(=O)O)C(=O)O [Example 73] (H-[Dap](Tetrazole5carbonyl)VL[β3hPhe(2R-OH)]DAE-OH)	93	
CC(C)C[C@H](NC(=O)[C@@H](NC(=O)[C@H](CN)NC(=O)C(=O)O)C(C)C)C(=O)N[C@@H](Cc1ccccc1)[C@@H](O)C(=O)Nc1ccc(C(=O)O)cc1 [Example 74]		90.5
CC(C)C[C@H](NC(=O)[C@@H](NC(=O)[C@@H](N)CCC(=O)O)C(C)C)C(=O)N[C@@H](Cc1ccccc1)[C@@H](O)C(=O)N[C@@H](CC(=O)O)C(=O)Nc1ccc(C(=O)O)cc1 [Example 76] (H-EVL[β3hPhe(2R-OH)]D[4Abz]-OH)	89.5	
CC(C)C[C@H](NC(=O)[C@@H](NC(=O)[C@H](CN)NC(=O)C(=O)O)C(C)C)C(=O)N[C@@H](Cc1ccccc1)[C@@H](O)C(=O)Nc1cccc(C(=O)O)c1 [Example 77]	87.9	
CC(C)C[C@H](NC(=O)[C@@H](NC(=O)[C@@H](N)CCC(=O)O)C(C)C)C(=O)N[C@@H](Cc1ccccc1)[C@@H](O)C(=O)N[C@@H](CC(=O)O)C(=O)Nc1ccccc1C(=O)O [Example 78] (H-EVL[β3hPhe(2R-OH)]D[2Abz]-OH)		85.8
CC(C)C[C@H](NC(=O)[C@@H](NC(=O)[C@@H](N)CCC(=O)O)C(C)C)C(=O)N[C@@H](Cc1ccccc1)[C@@H](O)C(=O)N[C@@H](CC(=O)O)C(=O)Nc1cccc(C(=O)O)c1 [Example 79] (H-EVL[β3hPhe(2R-OH)]D[3Abz]-OH)	85.3	
CC(C)C[C@H](NC(=O)[C@@H](NC(=O)[C@@H](N)CCC(=O)O)C(C)C)C(=O)N[C@@H](Cc1ccccc1)[C@@H](O)C(=O)N[C@@H](CC(=O)O)C(=O)N[C@@H](C)C(=O)Nc1ccccc1C(=O)O [Example 87] (H-EVL[β3hPhe(2R-OH)]DA[2Abz]-OH)		72.2

The next lines start with results.

inhibition at 2 µM [%]	SMILES	inhibition at 100 µM (stock) [%]
61.8	CC(C)C[C@H](NC(=O)[C@@H](NC(=O)[C@@H](N)CCC(=O)O)C(C)C)C(=O)N[C@@H](Cc1ccccc1)[C@@H](O)C(=O)N[C@@H](CC(=O)O)C(=O)N[C@@H](C)C(=O)N1CCCCC1C(=O)O (single isomer, unassigned) [Example 94]	
83.2	CC(C)C[C@H](NC(=O)[C@@H](NC(=O)[C@@H](N)CCC(=O)O)C(C)C)C(=O)N[C@@H](Cc1ccccc1)[C@@H](O)C(=O)N[C@@H](CC(=O)O)C(=O)N[C@@H](Cc1ccccc1)C(=O)N[C@@H](CCC(=O)O)C(=O)N[C@@H](Cc1ccccc1)C(=O)O [Example 80] (H-EVL[β3hPhe(2R-OH)]DFEF-OH)	
82.9	CC(C)C[C@H](NC(=O)[C@@H](NC(=O)[C@@H](N)CNC(=O)c1ccc(C(=O)O)cc1)C(C)C)C(=O)N[C@@H](Cc1ccccc1)[C@@H](O)C(=O)N[C@@H](CC(=O)O)C(=O)N[C@@H](C)C(=O)N[C@@H](CCC(=O)O)C(=O)O [Example 81] (H-[Dap](Benzoyl(4-COOH))VL[β3hPhe(2R-OH)]DAE-OH)	
81.8	CC(C)C[C@H](NC(=O)[C@@H](NC(=O)[C@@H](N)CCC(=O)O)C(C)C)C(=O)N[C@@H](CSc1ccccc1)[C@@H](O)C(=O)N[C@@H](CC(=O)O)C(=O)N[C@@H](C)C(=O)N[C@@H](CCC(=O)O)C(=O)N[C@@H](Cc1ccccc1)C(=O)O [Example 82] (H-EVL[X2]DAEF-OH)	
80.1	CC(C)C[C@H](NC(=O)[C@@H](NC(=O)[C@@H](N)CCC(=O)O)C(C)C)C(=O)N[C@@H](Cc1ccccc1)[C@@H](O)C(=O)Nc1ccc(Cl)c(C(=O)O)c1 [Example 83]	
79.1	CC(C)C[C@H](NC(=O)[C@@H](NC(=O)[C@@H](N)CNC(=O)c1cccc(C(=O)O)c1)C(C)C)C(=O)N[C@@H](Cc1ccccc1)[C@@H](O)C(=O)N[C@@H](CC(=O)O)C(=O)N[C@@H](C)C(=O)N[C@@H](CCC(=O)O)C(=O)O [Example 84] (H-[Dap](Benzoyl(3-COOH))VL[β3hPhe(2R-OH)]DAE-OH)	
75.2	CC(C)C[C@H](NC(=O)[C@@H](NC(=O)[C@H](CN)NC(=O)C(=O)O)C(C)C)C(=O)N[C@@H](Cc1ccccc1)[C@@H](O)C(=O)N[C@@H](CC(=O)O)C(=O)N[C@@H](C)C(=O)N[C@@H](CCC(=O)O)C(=O)O [Example 85] (Oxalyl-[Dap]VL[β3hPhe(2R-OH)]DAE-OH)	
75	CC(C)C[C@H](NC(=O)[C@@H](NC(=O)[C@@H](N)CCC(=O)O)C(C)C)C(=O)N[C@@H](Cc1ccccc1)[C@@H](O)C(=O)N[C@@H](CC(=O)O)C(=O)N[C@H](C(=O)N[C@@H](CCC(=O)O)C(=O)N[C@@H](Cc1ccccc1)C(=O)O)C(C)(C)C [Example 86] (H-EVL[β3hPhe(2R-OH)]D[Tle]EF-OH)	
70.4	CC(C)C[C@H](NC(=O)[C@@H](NC(=O)[C@@H](N)CCC(=O)O)C(C)C)C(=O)N[C@@H](Cc1ccccc1)[C@@H](O)C(=O)N[C@@H](CC(=O)O)C(=O)N1CCCCC1C(=O)O (stereo partly drawn) [Example 88] (H-EVL[β3hPhe(2R-OH)]D[ξPip]-OH)	
69.8	CC(C)C[C@H](NC(=O)[C@@H](NC(=O)[C@@H](N)CCC(=O)O)C(C)C)C(=O)N[C@@H](Cc1ccccc1)[C@@H](O)C(=O)Nc1ccc(CC(=O)O)cc1 [Example 89]	
69	CC(C)C[C@H](NC(=O)[C@@H](NC(=O)[C@@H](N)CCC(=O)O)C(C)C)C(=O)N[C@@H](CSc1ccccc1)[C@@H](O)C(=O)N[C@@H](CC(=O)O)C(=O)O [Example 90] (H-EVL[X2]D-OH)	
68.9	CC(C)C[C@H](NC(=O)[C@@H](NC(=O)[C@@H](N)CCC(=O)O)C(C)C)C(=O)N[C@@H](Cc1ccccc1)[C@@H](O)C(=O)N[C@@H](CC(=O)O)C(=O)NC(C)(C)C(=O)N[C@@H](CCC(=O)O)C(=O)O [Example 91] (H-EVL[β3hPhe(2R-OH)]D[Aib]E-OH)	
